Patent US6846489B1, “Vaccines containing a saponin and a sterol” (priority 1995, dated 2005)

Assays:
[1] = system: erythrocytes; assay: Lytic activity of QS21 on erythrocytes (hemolysis); format: cell-based; settings: for lytic activity: expressed as μg QS21 equivalent for the same hemolysis, 5 μg QS21 (or digitonin)
Experimental: When QS21 is added to erythrocytes, they lyse them releasing hemoglobin. This lytic activity can also be measured using liposomes which contain cholesterol in their membrane and an entrapped fluorescent dye, carboxyfluorescein—as the liposomes are lysed the dye is released which can be monitored by fluorescence spectroscopy.
If the QS21 first associates with cholesterol in liposomes it is no longer lyric towards cells or other liposomes.
In the presence of phospholipids the cholesterol resides within the phospholipid bilayer which can form a stable suspension of vesicles called liposomes. To avoid the requirement to add phospholipids a soluble derivative was tried.

[2] = Binding of the liposome-QS21 complex to alum; format: physicochemical; settings: incubated with alum (Al(OH)3) in PBS
Experimental: QS21 was incubated with neutral liposomes containing excess cholesterol as well as radioactive cholesterol and then incubated with alum (Al(OH)3) in PBS.

[3] = Lytic activity of QS21 on fluorescent liposomes (carboxyfluorescein release); settings: fluorescent liposomes without cholesterol in their membrane
Experimental: When QS21 is added to erythrocytes, they lyse them releasing hemoglobin. […]
The same holds true using fluorescent liposomes to measure the lytic activity.

[4] = Base-mediated hydrolysis of QS21 monitored by reverse-phase HPLC; format: physicochemical; settings: pH 9, 37° C.
From the text: This hydrolysis can be monitored by measuring the decrease in the peak corresponding to QS21 on reverse-phase HPLC.

[5] = system: HSV gD; settings: antigen gD (5 μg)
[6] = format: in vivo, rabbits
From the text: 1.6 Reactogenicity intra-muscularly in rabbits
Since the CPK increase is a measure of muscle damage this indicates decreased muscle damage and is confirmed by the histopathology.

| Molecule | lytic activity [1] [µg] | reduction in the lytic activity of QS21 ([1]; 2000 fold excess (w/w) over QS21) | binding to alum in PBS [2] | lysis of fluorescent liposomes [3] | lytic activity on erythrocytes ([1]; QS21 incubated with liposomes containing cholesterol before adding to erythrocytes, 1:1 ratio cholesterol to QS21) | hydrolysis of the QS21 ([4]; 16 hours, liposomes containing cholesterol added 2:1 (chol:QS21 w/w)) | QS21 degraded ([4]; 16 hours, liposomes containing cholesterol, ratio 1:1) [%] | QS21 hydrolysed ([4]; within 16 hours, QS21 alone) [%] | IgG1 %, isotypes 7 days post II [5] [%] | IgG1, isotypes 7 days post II [5] [µg/mL] | IgG2a %, isotypes 7 days post II [5] [%] | IgG2a, isotypes 7 days post II [5] [µg/mL] | IgG2b %, isotypes 7 days post II [5] [%] | IgG2b, isotypes 7 days post II [5] [µg/mL] | IgG 7 post II (GMT) [5] | IgG 14 post II (GMT) [5] | toxicity in rabbits (by CPK) ([6]; QS21 associated with cholesterol-containing liposomes, Chol:QS21=6:1) | CPK Day0 Mean ([6]; mean of 5 rabbits) [U.I./L] | CPK Day1 Mean ([6]; mean of 5 rabbits) [U.I./L] | CPK Day3 Mean ([6]; mean, value in parentheses left out) [U.I./L] |
| --- | --- | --- | --- | --- | --- | --- | --- | --- | --- | --- | --- | --- | --- | --- | --- | --- | --- | --- | --- | --- |
| C[C@@H]1CC[C@@]2(OC1)O[C@H]1[C@@H](O)[C@H]3[C@@H]4CC[C@H]5C[C@@H](O[C@@H]6O[C@H](CO)[C@H](O[C@@H]7O[C@H](CO)[C@@H](O)[C@H](O[C@@H]8OC[C@@H](O)[C@H](O)[C@H]8O)[C@H]7O[C@@H]7O[C@H](CO)[C@H](O)[C@H](O[C@@H]8O[C@H](CO)[C@@H](O)[C@H](O)[C@H]8O)[C@H]7O)[C@H](O)[C@H]6O)[C@H](O)C[C@]5(C)[C@H]4CC[C@]3(C)[C@H]1[C@@H]2C [digitonin] | 5 |  |  |  |  |  |  |  |  |  |  |  |  |  |  |  |  |  |  |  |
| Polyoxyethanyl-cholesterol sebacate |  | no reduction |  |  |  |  |  |  |  |  |  |  |  |  |  |  |  |  |  |  |
| QS21 | 5 |  | neither neutral liposomes nor QS21 bind to alum | no lysis | no lytic activity is detected | no hydrolysis | 10 | 90 | 66 | 156 | 28 | 67 | 6 | 14 | 3468 | 4132 | non-toxic | 1369 | 6261 | 1212 |
